This is an account of results in patent publication US8410112B2, “Compounds useful as inhibitors of ATR kinase” (Vertex Pharmaceuticals Incorporated, priority 2008, dated 2013).

In the assay the target is T1, full-length ATR (Homo sapiens, UniProt Q13535).
T1 construct: in the presence of 5 nM full-length ATR
T1 sequence (Q13535 whole entry): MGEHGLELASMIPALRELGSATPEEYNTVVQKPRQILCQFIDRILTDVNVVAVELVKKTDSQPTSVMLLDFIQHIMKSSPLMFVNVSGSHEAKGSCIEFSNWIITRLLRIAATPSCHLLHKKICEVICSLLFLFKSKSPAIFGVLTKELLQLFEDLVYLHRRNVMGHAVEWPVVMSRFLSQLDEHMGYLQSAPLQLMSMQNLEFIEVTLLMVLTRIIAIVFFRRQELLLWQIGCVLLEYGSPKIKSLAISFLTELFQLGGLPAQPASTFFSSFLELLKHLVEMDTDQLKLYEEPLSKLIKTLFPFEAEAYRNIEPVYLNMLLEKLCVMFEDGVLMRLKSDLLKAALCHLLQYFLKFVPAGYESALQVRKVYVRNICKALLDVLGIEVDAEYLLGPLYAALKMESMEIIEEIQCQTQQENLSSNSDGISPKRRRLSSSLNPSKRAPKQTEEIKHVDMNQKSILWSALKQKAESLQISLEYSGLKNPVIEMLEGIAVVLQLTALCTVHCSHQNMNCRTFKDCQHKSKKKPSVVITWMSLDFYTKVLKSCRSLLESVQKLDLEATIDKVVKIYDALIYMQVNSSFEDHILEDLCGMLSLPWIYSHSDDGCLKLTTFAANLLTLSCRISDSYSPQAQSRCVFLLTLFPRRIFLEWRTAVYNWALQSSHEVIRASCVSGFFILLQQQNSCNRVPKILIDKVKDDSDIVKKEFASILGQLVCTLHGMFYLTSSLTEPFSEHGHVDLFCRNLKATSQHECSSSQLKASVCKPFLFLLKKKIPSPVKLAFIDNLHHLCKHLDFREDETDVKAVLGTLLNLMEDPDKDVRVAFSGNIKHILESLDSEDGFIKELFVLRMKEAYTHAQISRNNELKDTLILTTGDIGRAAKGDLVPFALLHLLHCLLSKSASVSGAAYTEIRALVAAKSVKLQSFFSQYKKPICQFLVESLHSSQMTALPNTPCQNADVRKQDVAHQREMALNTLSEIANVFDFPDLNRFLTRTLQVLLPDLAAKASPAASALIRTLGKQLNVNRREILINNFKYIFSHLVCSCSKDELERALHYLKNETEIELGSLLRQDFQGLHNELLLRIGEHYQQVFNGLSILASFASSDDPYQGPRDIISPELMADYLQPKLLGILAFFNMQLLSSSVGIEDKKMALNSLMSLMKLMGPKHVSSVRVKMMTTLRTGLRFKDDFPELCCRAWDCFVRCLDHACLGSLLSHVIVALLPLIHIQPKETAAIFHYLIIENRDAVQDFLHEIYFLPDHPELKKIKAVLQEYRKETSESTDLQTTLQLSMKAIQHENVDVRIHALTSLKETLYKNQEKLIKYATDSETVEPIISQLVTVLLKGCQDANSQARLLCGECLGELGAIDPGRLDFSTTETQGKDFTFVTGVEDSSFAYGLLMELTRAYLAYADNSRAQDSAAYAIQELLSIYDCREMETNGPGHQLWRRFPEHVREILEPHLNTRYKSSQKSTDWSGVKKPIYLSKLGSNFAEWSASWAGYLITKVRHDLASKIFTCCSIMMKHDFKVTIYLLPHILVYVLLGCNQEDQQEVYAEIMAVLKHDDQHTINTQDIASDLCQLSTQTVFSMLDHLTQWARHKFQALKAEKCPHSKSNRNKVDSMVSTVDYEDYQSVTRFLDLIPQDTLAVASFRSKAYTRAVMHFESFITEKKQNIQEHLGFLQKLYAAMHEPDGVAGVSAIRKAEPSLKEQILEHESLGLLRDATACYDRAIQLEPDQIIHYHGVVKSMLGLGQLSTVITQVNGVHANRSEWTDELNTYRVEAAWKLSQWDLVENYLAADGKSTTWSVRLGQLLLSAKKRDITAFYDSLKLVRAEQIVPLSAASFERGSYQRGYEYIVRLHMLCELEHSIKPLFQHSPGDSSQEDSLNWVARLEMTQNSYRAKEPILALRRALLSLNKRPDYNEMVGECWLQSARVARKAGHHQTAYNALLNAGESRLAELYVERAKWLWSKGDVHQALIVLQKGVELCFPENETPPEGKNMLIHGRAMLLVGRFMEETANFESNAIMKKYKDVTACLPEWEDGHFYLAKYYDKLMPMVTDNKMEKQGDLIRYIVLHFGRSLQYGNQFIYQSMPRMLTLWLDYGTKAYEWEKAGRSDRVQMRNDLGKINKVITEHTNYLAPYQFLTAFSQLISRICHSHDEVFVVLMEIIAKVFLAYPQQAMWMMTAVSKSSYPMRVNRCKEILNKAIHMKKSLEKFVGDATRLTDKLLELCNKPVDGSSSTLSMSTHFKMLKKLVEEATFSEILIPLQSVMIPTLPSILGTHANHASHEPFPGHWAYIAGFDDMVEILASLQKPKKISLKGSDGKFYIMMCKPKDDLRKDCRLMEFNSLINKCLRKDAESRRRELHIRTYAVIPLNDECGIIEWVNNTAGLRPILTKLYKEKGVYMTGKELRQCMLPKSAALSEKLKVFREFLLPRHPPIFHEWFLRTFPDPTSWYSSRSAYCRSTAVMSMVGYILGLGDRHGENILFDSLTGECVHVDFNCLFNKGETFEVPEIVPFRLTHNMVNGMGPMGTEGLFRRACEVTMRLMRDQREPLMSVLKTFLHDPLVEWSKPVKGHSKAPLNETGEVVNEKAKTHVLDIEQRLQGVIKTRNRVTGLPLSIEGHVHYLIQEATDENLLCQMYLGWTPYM
Kind of assay: ATR Inhibition Assay (radioactive-phosphate incorporation). It counts as biochemical. The conditions noted are these: Ki(app); 5 nM full-length ATR, 10 μM ATP, 800 μM target peptide, 25° C. The gist of the method:
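After a 10-min pre-incubation of compound with 5 nM enzyme at 25 °C, ATP was added to start the reaction (final 10 μM [γ-33P]ATP, 800 μM peptide; Tris/HCl pH 7.5, MgCl2, DTT), which ran 24 h. Incorporated 33P was captured on phosphocellulose filters, and Ki(app) was fitted by non-linear regression.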
On to `CCOC(=O)N1CCN(c2cnc(N)c(-c3nc4ccccc4[nH]3)n2)CC1` [Compound I-271, ethyl 4-(5-amino-6-(1H-benzo[d]imidazol-2-yl)pyrazin-2-yl)piperazine-1-carboxylate], for which the Ki fell in the range of 1000 to 10000 nM.

On to `Nc1ncc(N2CCN(S(=O)(=O)c3ccsc3)CC2)nc1C(=O)Nc1ccccn1` [Compound I-117, 3-amino-N-(pyridin-2-yl)-6-(4-(thiophen-3-ylsulfonyl)piperazin-1-yl)pyrazine-2-carboxamide], for which the Ki is 100 to 1000 nM.

In the case of `CCC(=O)N(C)C1CCN(c2cnc(N)c(-c3nnc(-c4ccc(CNC)cc4)o3)n2)CC1` [Compound I-365, N-(1-(5-Amino-6-(5-(4-((methylamino)methyl)phenyl)-1,3,4-oxadiazol-2-yl)pyrazin-2-yl)piperidin-4-yl)-N-methylpropionamide], the Ki fell in the range of 100 to 1000 nM.

For `Nc1ncc(N2CC[C@H](NC(=O)C3CCCC3)C2)nc1-c1nc2ccccc2[nH]1` [Compound I-204, (S)-N-(1-(5-amino-6-(1H-benzo[d]imidazol-2-yl)pyrazin-2-yl)pyrrolidin-3-yl)cyclopentanecarboxamide], the Ki was 100 to 1000 nM.

Regarding `CNCc1ccc(-c2nnc(-c3nc(N4CCC5(CCNC5=O)CC4)cnc3N)o2)cc1` [Compound I-360, 8-(5-Amino-6-(5-(4-((methylamino)methyl)phenyl)-1,3,4-oxadiazol-2-yl)pyrazin-2-yl)-2,8-diazaspiro[4.5]decan-1-one], the Ki lay within 100 to 1000 nM.

As for `CCCS(=O)(=O)N1CCN(c2cnc(N)c(C(=O)Nc3ccccn3)n2)CC1` [Compound I-240, 3-amino-6-(4-(propylsulfonyl)piperazin-1-yl)-N-(pyridin-2-yl)pyrazine-2-carboxamide], the Ki was 100 to 1000 nM.

Consider `CC(C)C(=O)N1CC=C(c2cnc(N)c(-c3nnc(-c4ccccc4)o3)n2)CC1` [Compound I-192, 1-(4-(5-amino-6-(5-phenyl-1,3,4-oxadiazol-2-yl)pyrazin-2-yl)-5,6-dihydropyridin-1(2H)-yl)-2-methylpropan-1-one], for which the Ki is less than 100 nM.

For `CCS(=O)(=O)N1CC=C(c2cnc(N)c(-c3noc(-c4ccccc4)n3)n2)CC1` [Compound I-307, 5-(1-ethylsulfonyl-3,6-dihydro-2H-pyridin-4-yl)-3-(5-phenyl-1,2,4-oxadiazol-3-yl)pyrazin-2-amine], the Ki fell in the range of 100 to 1000 nM.

For `Nc1ncc(C2=CCN(C(=O)N3CCNCC3)CC2)nc1-c1nc2ccccc2[nH]1` [Compound I-280, (4-(5-amino-6-(1H-benzo[d]imidazol-2-yl)pyrazin-2-yl)-5,6-dihydropyridin-1(2H)-yl)(piperazin-1-yl)methanone], the Ki was in the range of 100 to 1000 nM.

`Nc1ncc(N2CCN(S(=O)(=O)C3CCCC3)CC2)nc1-c1nnc(-c2ccccc2)o1` [Compound I-92, 5-(4-(cyclopentylsulfonyl)piperazin-1-yl)-3-(5-phenyl-1,3,4-oxadiazol-2-yl)pyrazin-2-amine]: the Ki lay within 100 to 1000 nM.

Take `CCS(=O)(=O)N1CC=C(c2cnc(N)c(C(=O)Nc3cc(C)nn3C)n2)CC1` [Compound I-168, 3-amino-N-(1,3-dimethyl-1H-pyrazol-5-yl)-6-(1-(ethylsulfonyl)-1,2,3,6-tetrahydropyridin-4-yl)pyrazine-2-carboxamide]: the Ki is 100 to 1000 nM.

As to `CCS(=O)(=O)N1CC=C(c2cnc(N)c(-c3nc4ccc(C)c(C)c4[nH]3)n2)CC1` [Compound I-152, 3-(6,7-dimethyl-1H-benzo[d]imidazol-2-yl)-5-(1-(ethylsulfonyl)-1,2,3,6-tetrahydropyridin-4-yl)pyrazin-2-amine], the Ki lay within 100 to 1000 nM.

In the case of `CNCc1ccc(-c2nnc(-c3nc(N4CCC[C@H]4C)cnc3N)o2)cc1` [Compound I-362, 3-[5-[4-(Methylaminomethyl)phenyl]-1,3,4-oxadiazol-2-yl]-5-[(2R)-2-methylpyrrolidin-1-yl]pyrazin-2-amine], the Ki is 100 to 1000 nM.

On to `Nc1ncc(C2=CCN(C(=O)C3CCCC3)CC2)nc1-c1nnc(-c2ccccc2)o1` [Compound I-127, (4-(5-amino-6-(5-phenyl-1,3,4-oxadiazol-2-yl)pyrazin-2-yl)-5,6-dihydropyridin-1(2H)-yl)(cyclopentyl)methanone], for which the Ki was less than 100 nM.

For `COCCOCC(=O)N1CCN(c2cnc(N)c(C(=O)Nc3ccccn3)n2)CC1` [Compound I-151, 3-amino-6-(4-(2-(2-methoxyethoxy)ethanoyl)piperazin-1-yl)-N-(pyridin-2-yl)pyrazine-2-carboxamide], the Ki was 1000 to 10000 nM.

With `CCS(=O)(=O)N1CCN(c2cnc(N)c(-c3cc4ccccc4o3)n2)CC1` [Compound I-29, 3-(benzofuran-2-yl)-5-(4-(ethylsulfonyl)piperazin-1-yl)pyrazin-2-amine], the Ki was in the range of 100 to 1000 nM.

Take `CC(C)(C)OC(=O)N1CC=C(c2cnc(N)c(-c3noc(-c4ccccc4)n3)n2)CC1` [Compound I-163, Tert-butyl 4-(5-amino-6-(5-phenyl-1,2,4-oxadiazol-3-yl)pyrazin-2-yl)-5,6-dihydropyridine-1(2H)-carboxylate]: the Ki fell in the range of 100 to 1000 nM.

Take `COCCOC(=O)N1CCN(c2cnc(N)c(-c3nnc(-c4ccccc4)o3)n2)CC1` [Compound I-221, 2-methoxyethyl 4-(5-amino-6-(5-phenyl-1,3,4-oxadiazol-2-yl)pyrazin-2-yl)piperazine-1-carboxylate]: the Ki lay in the range of 100 to 1000 nM.

Consider `CNCc1ccc(-c2nnc(-c3nc(N4C[C@@H]5[C@H](C4)[C@@H]5NS(=O)(=O)C(C)C)cnc3N)o2)cc1` [Compound I-370, N-[(1S,5R)-3-[5-Amino-6-[5-[4-(methylaminomethyl)phenyl]-1,3,4-oxadiazol-2-yl]pyrazin-2-yl]-3-azabicyclo[3.1.0]hexan-6-yl]propane-2-sulfonamide], for which the Ki fell in the range of 100 to 1000 nM.

Take `Nc1ncc(N2CCN(C(=O)N3CCCCC3)CC2)nc1-c1nc2ccccc2[nH]1` [Compound I-270, (4-(5-amino-6-(1H-benzo[d]imidazol-2-yl)pyrazin-2-yl)piperazin-1-yl)(piperidin-1-yl)methanone]: the Ki was 1000 to 10000 nM.

On to `Cc1ccc2nc(-c3nc(N4CCS(=O)(=O)CC4)cnc3N)[nH]c2c1` [Compound I-21, 5-(1,1-dioxo-1,4-thiazinan-4-yl)-3-(6-methyl-1H-benzimidazol-2-yl)pyrazin-2-amine], for which the Ki lay in the range of 1000 to 10000 nM.

For `CCS(=O)(=O)N1CCN(c2cnc(N)c(-c3nnc(-c4ccccc4)o3)n2)CC1` [Compound I-18, 5-(4-(ethylsulfonyl)piperazin-1-yl)-3-(5-phenyl-1,3,4-oxadiazol-2-yl)pyrazin-2-amine], the Ki is less than 100 nM.

`Cc1cccc(C)c1C(=O)N1CC=C(c2cnc(N)c(-c3nc4ccccc4[nH]3)n2)CC1` [Compound I-263, (4-(5-amino-6-(1H-benzo[d]imidazol-2-yl)pyrazin-2-yl)-5,6-dihydropyridin-1(2H)-yl)(2,6-dimethylphenyl)methanone]: the Ki is less than 100 nM.

`COc1cccc(N2CCN(c3cnc(N)c(-c4nc5ccc(C)cc5[nH]4)n3)CC2)c1` [Compound I-48, 5-(4-(3-methoxyphenyl)piperazin-1-yl)-3-(6-methyl-1H-benzo[d]imidazol-2-yl)pyrazin-2-amine]: the Ki lay in the range of 100 to 1000 nM.

Turning to `CNCc1ccc(-c2nnc(-c3nc(N4CC[C@@H](CNC(C)=O)C4)cnc3N)o2)cc1` [Compound I-323, N-[[(3S)-1-[5-Amino-6-[5-[4-(methylaminomethyl)phenyl]-1,3,4-oxadiazol-2-yl]pyrazin-2-yl]pyrrolidin-3-yl]methyl]acetamide], the Ki was less than 100 nM.

`CCS(=O)(=O)N1CCN(c2cnc(N)c(-c3cn(-c4ccc(N)cc4)nn3)n2)CC1` [Compound I-160, 3-(1-(4-aminophenyl)-1H-1,2,3-triazol-4-yl)-5-(4-(ethylsulfonyl)piperazin-1-yl)pyrazin-2-amine]: the Ki is 100 to 1000 nM.

With `Cc1ccc2nc(-c3nc(N4CCC(O)CC4)cnc3N)[nH]c2c1` [Compound I-5, 1-(5-amino-6-(6-methyl-1H-benzo[d]imidazol-2-yl)pyrazin-2-yl)piperidin-4-ol], the Ki was in the range of 1000 to 10000 nM.

For `CNC(=O)C1CCN(c2cnc(N)c(-c3nc4ccc(C)cc4[nH]3)n2)CC1` [Compound I-13, 1-(5-amino-6-(6-methyl-1H-benzo[d]imidazol-2-yl)pyrazin-2-yl)-N-methylpiperidine-4-carboxamide], the Ki was 1000 to 10000 nM.

Turning to `CCS(=O)(=O)N1CC=C(c2cnc(N)c(C(=O)Nc3n[nH]c4ccccc34)n2)CC1` [Compound I-169, 3-amino-6-(1-(ethylsulfonyl)-1,2,3,6-tetrahydropyridin-4-yl)-N-(1H-indazol-3-yl)pyrazine-2-carboxamide], the Ki is less than 100 nM.

Turning to `CC#CCOC(=O)N1CC=C(c2cnc(N)c(-c3nc4ccccc4[nH]3)n2)CC1` [Compound I-254, but-2-ynyl 4-(5-amino-6-(1H-benzo[d]imidazol-2-yl)pyrazin-2-yl)-5,6-dihydropyridine-1(2H)-carboxylate], the Ki was in the range of 100 to 1000 nM.

With `CNCc1ccc(-c2nnc(-c3nc(N4CCC(N5CCCC5=O)CC4)cnc3N)o2)cc1` [Compound I-364, 1-(1-(5-Amino-6-(5-(4-((methylamino)methyl)phenyl)-1,3,4-oxadiazol-2-yl)pyrazin-2-yl)piperidin-4-yl)pyrrolidin-2-one], the Ki lay within 100 to 1000 nM.

As for `Nc1ncc(N2CCN(C(=O)N3CCCC3)CC2)nc1-c1nnc(-c2ccccc2)o1` [Compound I-223, (4-(5-amino-6-(5-phenyl-1,3,4-oxadiazol-2-yl)pyrazin-2-yl)piperazin-1-yl)(pyrrolidin-1-yl)methanone], the Ki lay in the range of 100 to 1000 nM.

Turning to `CCNC(=O)O[C@H]1CCN(c2cnc(N)c(-c3nnc(-c4ccc(CNC)cc4)o3)n2)C1` [Compound I-372, [(3S)-1-[5-Amino-6-[5-[4-(methylaminomethyl)phenyl]-1,3,4-oxadiazol-2-yl]pyrazin-2-yl]pyrrolidin-3-yl]N-ethylcarbamate], the Ki fell in the range of 100 to 1000 nM.
